{"source": "patent US20230026259A1", "about": "“CA2 COMPOSITIONS AND METHODS FOR TUNABLE REGULATION” (Obsidian Therapeutics, Inc., priority 2019, published 2023)", "assay_type_in_all_cases": "cell-based", "key": {"NIH3T3 cells [1]": {"tested_on": "NIH3T3 cells", "experiment": "Destabilization mutant screening of human CA2 linked to GFP, ligand response by FACS (Valdecoxib, Celecoxib, Acetazolamide)", "method": "To identify destabilizing mutations of human CA2 that are stabilized upon ligand binding to CA2, two rounds of mutant screening were performed, using a lentivirus CA2 mutant library provided by Genscript (China). These methods were used to generate a library of mutant polypeptides using mutagenesis primers and error prone PCR. Lentiviral vectors expressing the template, wild-type human CA2 operably linked to GFP(OT-001986) was also provided by Genscript along with the CA2 mutant library. The library was packaged into lentivirus, transduced into NIH3T3 cells at a multiplicity of infection (MOI) of approximately 0.3 and select stable cell pools were derived by selecting with selection marker puromycin.\nTo identify cell pools containing destabilizing mutants of CA2 that are stabilizing when CA2 is bound to its corresponding ligand, cells were sorted using FACS. In the initial round, the bottom 15% of population that was GFP negative in the absence of ligand was selected. Cells were expanded and then treated with 10 μM Celecoxib for 24 hours and harvested for cell sorting. The top 11% GFP positive cells which were also responsive to ligand treatment compared to untreated were collected. Celecoxib was removed from the cultures and replaced with DMSO. […] Genomic DNA was isolated and amplified CA2 mutants were reintroduced to the lentiviral vectors where CA2 was operably linked to GFP. The constructs were transduced into NIH3T3 cells with lentivirus vectors for each clone. The cells were treated with 10 μM Valdecoxib or 10 μM Celecoxib for 24 hours and analyzed by FACS. […] In Table 25, the Construct ID (OT-XXXXXX) refers to the construct which includes the referenced CA2 mutant and the Library ID (LibCXXXXXX) refers to the CA2 mutant itself.\nThe response of NIH3T3 cells to varying doses of Valdecoxib or Celecoxib for 24 hours was measured and analyzed by FACS.\nClones treated with different ligands were compared to examine the behavior of each mutant with the ligands."}, "NIH3T3 cells [2]": {"tested_on": "NIH3T3 cells", "experiment": "Immunoblotting of cell lysates for GFP after ligand treatment", "settings": "24 hours", "method": "The protein expression in the presence of ligand was measured by immunoblotting the cell lysates for GFP.\nThe protein expression in the presence of ligand was measured by immunoblotting cell lysates for GFP."}, "NIH3T3 cells [3]": {"tested_on": "NIH3T3 cells", "experiment": "Destabilization mutant screening of human CA2 linked to GFP, ligand response by FACS (Valdecoxib, Celecoxib, Acetazolamide)", "remark": "listed apart in the source"}, "[4]": {"settings": "NIH3T3, Celecoxib 0 μM, 24 hours"}, "[5]": {"settings": "NIH3T3, Celecoxib 0.03 μM, 24 hours"}, "[6]": {"settings": "NIH3T3, Celecoxib 0.1 μM, 24 hours"}, "[7]": {"settings": "NIH3T3, Celecoxib 0.3 μM, 24 hours"}, "[8]": {"settings": "NIH3T3, Celecoxib 1 μM, 24 hours"}, "[9]": {"settings": "NIH3T3, Celecoxib 3 μM, 24 hours"}, "[10]": {"settings": "NIH3T3, Celecoxib 10 μM, 24 hours"}, "[11]": {"settings": "NIH3T3, Celecoxib 30 μM, 24 hours"}, "[12]": {"settings": "NIH3T3, Valdecoxib 0 μM, 24 hours"}, "[13]": {"settings": "NIH3T3, Valdecoxib 0.03 μM, 24 hours"}, "[14]": {"settings": "NIH3T3, Valdecoxib 0.1 μM, 24 hours"}, "[15]": {"settings": "NIH3T3, Valdecoxib 0.3 μM, 24 hours"}, "[16]": {"settings": "NIH3T3, Valdecoxib 1 μM, 24 hours"}, "[17]": {"settings": "NIH3T3, Valdecoxib 3 μM, 24 hours"}, "[18]": {"settings": "NIH3T3, Valdecoxib 10 μM, 24 hours"}, "[19]": {"settings": "NIH3T3, Valdecoxib 30 μM, 24 hours"}}, "data": [{"substance": "CA2 (aa 2-260 of WT, L156H) [LibC000208]", "values": [{"measurement": "Median PE", "setting": "NIH3T3 cells [1]; NIH3T3, 10 μM Celecoxib", "value": 8690}, {"measurement": "SR (stabilization ratio)", "setting": "NIH3T3 cells [1]; NIH3T3, 10 μM Celecoxib vs DMSO", "value": 9.38}, {"measurement": "Median PE", "setting": "NIH3T3 cells [1]; NIH3T3, 10 μM Valdecoxib", "value": 8006}, {"measurement": "SR (stabilization ratio)", "setting": "NIH3T3 cells [1]; NIH3T3, 10 μM Valdecoxib vs DMSO", "value": 8.65}, {"measurement": "Median FITC / Median PE", "setting": "NIH3T3 cells [1]; NIH3T3, Acetazolamide 0.03 μM, 24 hours", "value": 1190}, {"measurement": "Fold change", "setting": "NIH3T3 cells [1]; NIH3T3, Acetazolamide 0.1 μM vs DMSO", "value": 2.82}, {"measurement": "Median FITC / Median PE", "setting": "NIH3T3 cells [1]; NIH3T3, Acetazolamide 0.1 μM, 24 hours", "value": 2137}, {"measurement": "Fold change", "setting": "NIH3T3 cells [1]; NIH3T3, Acetazolamide 0.3 μM vs DMSO", "value": 6.23}, {"measurement": "Median FITC / Median PE", "setting": "NIH3T3 cells [1]; NIH3T3, Acetazolamide 0.3 μM, 24 hours", "value": 4715}, {"measurement": "Fold change", "setting": "NIH3T3 cells [1]; NIH3T3, Acetazolamide 1 μM vs DMSO", "value": 13.17}, {"measurement": "Median FITC / Median PE", "setting": "NIH3T3 cells [1]; NIH3T3, Acetazolamide 1 μM, 24 hours", "value": 9970}, {"measurement": "Fold change", "setting": "NIH3T3 cells [1]; NIH3T3, Acetazolamide 3 μM vs DMSO", "value": 18.36}, {"measurement": "Median FITC / Median PE", "setting": "NIH3T3 cells [1]; NIH3T3, Acetazolamide 3 μM, 24 hours", "value": 13900}, {"measurement": "MFI, comparative analysis", "setting": "NIH3T3 cells [1]; NIH3T3, Acetazolamide 10 μM", "value": 16900}, {"measurement": "Fold change", "setting": "NIH3T3 cells [1]; NIH3T3, Acetazolamide 10 μM vs DMSO", "value": 22.32}, {"measurement": "Median FITC / Median PE", "setting": "NIH3T3 cells [1]; NIH3T3, Acetazolamide 10 μM, 24 hours", "value": 16900}, {"measurement": "MFI, comparative analysis", "setting": "NIH3T3 cells [1]; NIH3T3, Acetazolamide 30 μM", "value": 17800}, {"measurement": "Fold change", "setting": "NIH3T3 cells [1]; NIH3T3, Acetazolamide 30 μM vs DMSO", "value": 23.51}, {"measurement": "Median FITC / Median PE", "setting": "NIH3T3 cells [1]; NIH3T3, Acetazolamide 30 μM, 24 hours", "value": 17800}, {"measurement": "Med (median fluorescence intensity)", "setting": "NIH3T3 cells [1]; [4]", "value": 906}, {"measurement": "SR (stabilization ratio)", "setting": "NIH3T3 cells [1]; [4]", "value": 1}, {"measurement": "Med (median fluorescence intensity)", "setting": "NIH3T3 cells [1]; [5]", "value": 1017}, {"measurement": "SR (stabilization ratio)", "setting": "NIH3T3 cells [1]; [5]", "value": 1.12}, {"measurement": "Med (median fluorescence intensity)", "setting": "NIH3T3 cells [1]; [6]", "value": 1194}, {"measurement": "SR (stabilization ratio)", "setting": "NIH3T3 cells [1]; [6]", "value": 1.32}, {"measurement": "Med (median fluorescence intensity)", "setting": "NIH3T3 cells [1]; [7]", "value": 1457}, {"measurement": "SR (stabilization ratio)", "setting": "NIH3T3 cells [1]; [7]", "value": 1.61}, {"measurement": "Med (median fluorescence intensity)", "setting": "NIH3T3 cells [1]; [8]", "value": 2221}, {"measurement": "SR (stabilization ratio)", "setting": "NIH3T3 cells [1]; [8]", "value": 2.45}, {"measurement": "Med (median fluorescence intensity)", "setting": "NIH3T3 cells [1]; [9]", "value": 5404}, {"measurement": "SR (stabilization ratio)", "setting": "NIH3T3 cells [1]; [9]", "value": 5.96}, {"measurement": "Med (median fluorescence intensity)", "setting": "NIH3T3 cells [1]; [10]", "value": 9766}, {"measurement": "SR (stabilization ratio)", "setting": "NIH3T3 cells [1]; [10]", "value": 10.78}, {"measurement": "Med (median fluorescence intensity)", "setting": "NIH3T3 cells [1]; [11]", "value": 13200}, {"measurement": "SR (stabilization ratio)", "setting": "NIH3T3 cells [1]; [11]", "value": 14.57}, {"measurement": "MFI, comparative analysis, normalized to parental day 1", "setting": "NIH3T3 cells [1]; NIH3T3, Celecoxib μM (concentration not given)", "value": 8707.036}, {"measurement": "MFI, comparative analysis", "setting": "NIH3T3 cells [1]; NIH3T3, DMSO", "value": 757}, {"measurement": "Median PE", "setting": "NIH3T3 cells [1]; NIH3T3, DMSO", "value": 926}, {"measurement": "SR (stabilization ratio)", "setting": "NIH3T3 cells [1]; NIH3T3, DMSO (reference)", "value": 1}, {"measurement": "Median FITC / Median PE", "setting": "NIH3T3 cells [1]; NIH3T3, DMSO, 24 hours (Acetazolamide experiment)", "value": 757}, {"measurement": "Med (median fluorescence intensity)", "setting": "NIH3T3 cells [1]; [12]", "value": 906}, {"measurement": "SR (stabilization ratio)", "setting": "NIH3T3 cells [1]; [12]", "value": 1}, {"measurement": "Med (median fluorescence intensity)", "setting": "NIH3T3 cells [1]; [13]", "value": 1049}, {"measurement": "SR (stabilization ratio)", "setting": "NIH3T3 cells [1]; [13]", "value": 1.16}, {"measurement": "Med (median fluorescence intensity)", "setting": "NIH3T3 cells [1]; [14]", "value": 1131}, {"measurement": "SR (stabilization ratio)", "setting": "NIH3T3 cells [1]; [14]", "value": 1.25}, {"measurement": "Med (median fluorescence intensity)", "setting": "NIH3T3 cells [1]; [15]", "value": 1219}, {"measurement": "SR (stabilization ratio)", "setting": "NIH3T3 cells [1]; [15]", "value": 1.35}, {"measurement": "Med (median fluorescence intensity)", "setting": "NIH3T3 cells [1]; [16]", "value": 1747}, {"measurement": "SR (stabilization ratio)", "setting": "NIH3T3 cells [1]; [16]", "value": 1.93}, {"measurement": "Med (median fluorescence intensity)", "setting": "NIH3T3 cells [1]; [17]", "value": 3603}, {"measurement": "SR (stabilization ratio)", "setting": "NIH3T3 cells [1]; [17]", "value": 3.98}, {"measurement": "Med (median fluorescence intensity)", "setting": "NIH3T3 cells [1]; [18]", "value": 8284}, {"measurement": "SR (stabilization ratio)", "setting": "NIH3T3 cells [1]; [18]", "value": 9.14}, {"measurement": "Med (median fluorescence intensity)", "setting": "NIH3T3 cells [1]; [19]", "value": 11300}, {"measurement": "SR (stabilization ratio)", "setting": "NIH3T3 cells [1]; [19]", "value": 12.48}, {"measurement": "MFI, comparative analysis, normalized to parental day 1", "setting": "NIH3T3 cells [1]; NIH3T3, Valdecoxib μM (concentration not given)", "value": 7385.735}, {"measurement": "stabilization with varying doses of Valdecoxib or Celecoxib", "setting": "NIH3T3 cells [1]; NIH3T3 cells, 24 hours, FACS", "value": "dose dependent stabilization"}, {"measurement": "GFP protein expression by immunoblot, Acetazolamide", "setting": "NIH3T3 cells [2]; NIH3T3 cells, 0.3, 1, 3, 10 or 30 μM Acetazolamide", "value": "stabilization of GFP with increasing ligand doses"}, {"measurement": "GFP protein expression by immunoblot, Celecoxib or Valdecoxib", "setting": "NIH3T3 cells [2]; NIH3T3 cells, 1, 3, 10 or 30 μM Celecoxib or Valdecoxib", "value": "stabilization of GFP with increasing ligand doses"}, {"measurement": "Fold change", "setting": "NIH3T3 cells [3]; NIH3T3, Acetazolamide 0.03 μM vs DMSO", "value": 1.57}, {"measurement": "Fold change", "setting": "NIH3T3 cells [3]; NIH3T3, DMSO (reference), Acetazolamide experiment", "value": 1}, {"measurement": "GFP expression with varying doses of Acetazolamide", "setting": "NIH3T3 cells [3]; NIH3T3 cells, 24 hours, FACS", "value": "dose response stabilization of GFP expression"}]}]}
